Experimental data taken from BigSolDB 2.1.

COc1cc(/C=C/c2ccc(O)cc2)cc(OC)c1
Details	solubility (mole fraction)
in PEG-400, 298.2 K	0.346
in PEG-400, 303.2 K	0.351
in PEG-400, 308.2 K	0.358
in PEG-400, 313.2 K	0.366
in PEG-400, 318.2 K	0.373

solubility (mole fraction)
Details	298.2 K	303.2 K	308.2 K	313.2 K	318.2 K
in ethanol	0.113	0.117	0.124	0.129	0.136
in propylene glycol	0.25	0.26	0.272	0.281	0.29
in transcutol	0.23	0.235	0.241	0.248	0.253
in water	1.27e-06	1.62e-06	2.04e-06	2.53e-06	2.95e-06
